Measured values reported in patent US20250368653A1, “SOLID FORMS COMPRISING (S)-7-(1-ACRYLOYLPIPERIDIN-4-YL)-2-(4-PHENOXYPHENYL)-4,5,6,7-TETRAHYDROPYRAZOLO[1,5-A]PYRIMIDINE-3-CARBOXAMIDE, AND OXALIC ACID, COMPOSITIONS AND METHODS OF USE THEREOF” (BeiGene Switzerland GmbH, priority 2022, published 2025).
Converted amounts (≈) assume the structure as drawn. Where two headings read alike, the source gives them in different places.

Columns and labels:
[1] = Solubility experiment in water; type: physicochemical; details: solid loading 2 mg/mL; for solubility at 1 h / solubility at 2 h / solubility at 4 h / solubility at 24 h: thermodynamic from solid, read-out: S: solubility
Protocol: Table 7 and Table 8 provide summaries of solubility experiment in water at 37° C. and 25° C., respectively.

DVS water uptake = type: physicochemical; details: 25° C./80% RH

**Q.** For `C=CC(=O)N1CCC([C@@H]2CCNc3c(C(N)=O)c(-c4ccc(Oc5ccccc5)cc4)nn32)CC1` [Freebase Amorphous], which “FC: solid form change” value ([1]; 25° C., 1 hr) is on record?
**A.** The value was “No”.

**Q.** And the “S: solubility” value ([1]; 25° C., 1 hr)?
**A.** The value was 74 µg/mL.

**Q.** And the pH ([1]; 25° C., 1 hr)?
**A.** The pH was 8.55.

**Q.** And the “FC: solid form change” value ([1]; 25° C., 2 hrs)?
**A.** The value was “No”.

**Q.** What about the “S: solubility” value ([1]; 25° C., 2 hrs) of the same compound?
**A.** The value was 81 µg/mL.

**Q.** And the pH ([1]; 25° C., 2 hrs)?
**A.** The pH was 8.57.

**Q.** What about the “FC: solid form change” value ([1]; 25° C., 4 hrs) of the same compound?
**A.** Its value is “No”.

**Q.** And the “S: solubility” value ([1]; 25° C., 4 hrs)?
**A.** Its value is 78 µg/mL.

**Q.** What about the pH ([1]; 25° C., 4 hrs) of the same compound?
**A.** Its pH is 8.51.

**Q.** And the “FC: solid form change” value ([1]; 25° C., 24 hrs)?
**A.** The value was “No”.

**Q.** What about the “S: solubility” value ([1]; 25° C., 24 hrs) of the same compound?
**A.** The value was 72 µg/mL.

**Q.** What about the pH ([1]; 25° C., 24 hrs) of the same compound?
**A.** The pH was 7.68.

**Q.** And the “FC: solid form change” value ([1]; 37° C., 1 hr)?
**A.** Its value is “Gel”.

**Q.** What about the “S: solubility” value ([1]; 37° C., 1 hr) of the same compound?
**A.** Its value is 89 µg/mL.

**Q.** And the pH ([1]; 37° C., 1 hr)?
**A.** The pH was 8.78.

**Q.** And the “FC: solid form change” value ([1]; 37° C., 2 hrs)?
**A.** The value was “Gel”.

**Q.** What about the “S: solubility” value ([1]; 37° C., 2 hrs) of the same compound?
**A.** Its value is 89 µg/mL.

**Q.** What about the pH ([1]; 37° C., 2 hrs) of the same compound?
**A.** The pH was 8.77.

**Q.** And the “FC: solid form change” value ([1]; 37° C., 4 hrs)?
**A.** The value was “Gel”.

**Q.** And the “S: solubility” value ([1]; 37° C., 4 hrs)?
**A.** Its value is 84 µg/mL.

**Q.** And the pH ([1]; 37° C., 4 hrs)?
**A.** The pH was 8.60.

**Q.** What about the “FC: solid form change” value ([1]; 37° C., 24 hrs) of the same compound?
**A.** The value was “Gel”.

**Q.** What about the “S: solubility” value ([1]; 37° C., 24 hrs) of the same compound?
**A.** Its value is 78 µg/mL.

**Q.** What about the pH ([1]; 37° C., 24 hrs) of the same compound?
**A.** The pH was 7.74.

**Q.** Which results are given for `C=CC(=O)N1CCC([C@@H]2CCNc3c(C(N)=O)c(-c4ccc(Oc5ccccc5)cc4)nn32)CC1` [Freebase Form A]?
**A.** FC: solid form change ([1]; 25° C., 1 hr): No; S: solubility ([1]; 25° C., 1 hr): 44 µg/mL; pH ([1]; 25° C., 1 hr): 8.66; FC: solid form change ([1]; 25° C., 2 hrs): No; S: solubility ([1]; 25° C., 2 hrs): 46 µg/mL; pH ([1]; 25° C., 2 hrs): 8.66; FC: solid form change ([1]; 25° C., 4 hrs): No; S: solubility ([1]; 25° C., 4 hrs): 40 µg/mL; pH ([1]; 25° C., 4 hrs): 8.57; FC: solid form change ([1]; 25° C., 24 hrs): No; S: solubility ([1]; 25° C., 24 hrs): 47 µg/mL; pH ([1]; 25° C., 24 hrs): 7.85; FC: solid form change ([1]; 37° C., 1 hr): No; S: solubility ([1]; 37° C., 1 hr): 55 µg/mL; pH ([1]; 37° C., 1 hr): 8.76; FC: solid form change ([1]; 37° C., 2 hrs): No; S: solubility ([1]; 37° C., 2 hrs): 57 µg/mL; pH ([1]; 37° C., 2 hrs): 8.77; FC: solid form change ([1]; 37° C., 4 hrs): No; S: solubility ([1]; 37° C., 4 hrs): 59 µg/mL; pH ([1]; 37° C., 4 hrs): 8.63; FC: solid form change ([1]; 37° C., 24 hrs): No; S: solubility ([1]; 37° C., 24 hrs): 56 µg/mL; pH ([1]; 37° C., 24 hrs): 7.67

**Q.** Which hygroscopicity (DVS water uptake) does the source give for `C=CC(=O)N1CCC([C@@H]2CCNc3c(C(N)=O)c(-c4ccc(Oc5ccccc5)cc4)nn32)CC1` [Form 1] here?
**A.** The hygroscopicity was “non hygroscopic”.

**Q.** And the water uptake (DVS water uptake)?
**A.** The water uptake was “lower than 0.2%”.

**Q.** And the “FC: solid form change” value ([1]; 25° C., 1 hr)?
**A.** The value was “No”.

**Q.** And the pH ([1]; 25° C., 1 hr)?
**A.** Its pH is 3.36.

**Q.** What about the “FC: solid form change” value ([1]; 25° C., 2 hrs) of the same compound?
**A.** Its value is “No”.

**Q.** What about the pH ([1]; 25° C., 2 hrs) of the same compound?
**A.** The pH was 3.09.

**Q.** And the “FC: solid form change” value ([1]; 25° C., 4 hrs)?
**A.** Its value is “No”.

**Q.** And the pH ([1]; 25° C., 4 hrs)?
**A.** Its pH is 3.01.

**Q.** And the “FC: solid form change” value ([1]; 25° C., 24 hrs)?
**A.** Its value is “No”.

**Q.** And the pH ([1]; 25° C., 24 hrs)?
**A.** The pH was 2.76.

**Q.** What about the solubility at 1 h ([1]; 25 °C, 25° C., 1 hr) of the same compound?
**A.** The solubility at 1 h was 75 µg/mL (≈ 159 µM).

**Q.** And the solubility at 2 h ([1]; 25 °C, 25° C., 2 hrs)?
**A.** The solubility at 2 h was 78 µg/mL (≈ 165 µM).

**Q.** And the solubility at 4 h ([1]; 25 °C, 25° C., 4 hrs)?
**A.** The solubility at 4 h was 77 µg/mL (≈ 163 µM).

**Q.** And the solubility at 24 h ([1]; 25 °C, 25° C., 24 hrs)?
**A.** Its solubility at 24 h is 75 µg/mL (≈ 159 µM).

**Q.** What about the “FC: solid form change” value ([1]; 37° C., 1 hr) of the same compound?
**A.** Its value is “Gel”.

**Q.** And the pH ([1]; 37° C., 1 hr)?
**A.** Its pH is 3.22.

**Q.** What about the “FC: solid form change” value ([1]; 37° C., 2 hrs) of the same compound?
**A.** The value was “Gel”.

**Q.** What about the pH ([1]; 37° C., 2 hrs) of the same compound?
**A.** Its pH is 2.97.

**Q.** And the “FC: solid form change” value ([1]; 37° C., 4 hrs)?
**A.** Its value is “Gel”.

**Q.** And the pH ([1]; 37° C., 4 hrs)?
**A.** Its pH is 3.01.

**Q.** What about the “FC: solid form change” value ([1]; 37° C., 24 hrs) of the same compound?
**A.** Its value is “Gel”.

**Q.** And the pH ([1]; 37° C., 24 hrs)?
**A.** The pH was 2.74.

**Q.** What about the solubility at 1 h ([1]; 37 °C, 37° C., 1 hr) of the same compound?
**A.** The solubility at 1 h was 90 µg/mL (≈ 191 µM).

**Q.** And the solubility at 2 h ([1]; 37 °C, 37° C., 2 hrs)?
**A.** Its solubility at 2 h is 88 µg/mL (≈ 187 µM).

**Q.** What about the solubility at 4 h ([1]; 37 °C, 37° C., 4 hrs) of the same compound?
**A.** The solubility at 4 h was 73 µg/mL (≈ 155 µM).

**Q.** And the solubility at 24 h ([1]; 37 °C, 37° C., 24 hrs)?
**A.** The solubility at 24 h was 82 µg/mL (≈ 174 µM).
